Paper PMC4533973, “Synthesis and Evaluation of Chloramphenicol Homodimers: Molecular Target, Antimicrobial Activity, and Toxicity against Human Cells” (PLoS ONE, 2015)

Tests used:
P. aeruginosa (GRE5288) = assay: Antibacterial activity (growth inhibition, EC50); assay type: cell-based, Pseudomonas aeruginosa; settings: Pseudomonas aeruginosa; TSB medium; clinical isolate with MexAB-OprM and MexXY efflux; read-out: EC50
From the text: (§1) A.S. Mankin (University of Illinois). E. coli ΔtolC strain BL21 DE3 with impaired AcrAB-TolC, a proton-dependent MDR efflux pump causing multidrug resistance, was offered by Dr D.N. Wilson (University of Munich) and included in our study to test if this mechanism of resistance affects the efficacy of CAM dimers. […] I. Spiliopoulou (National Reference Laboratory for Staphylococci, School of Medicine, University of Patras, Greece). Finally, E. coli strain Rosetta(DE3)pLysS, containing a chloramphenicol resistant gene in the pLysS plasmid, was purchased from Novagen and was also included in our study. Briefly, S. aureus or E. coli cells (200 μl of a 0.700 OD560 preculture) containing wild-type or mutant ribosomes were added in 3.8 ml of LB (Luria-Bertani) medium and grown at 37°C in the presence or absence of CAM or CAM dimers until the optical density of the control culture (grown in the absence of drug) reached the value 0.700 at 560 nm. For E. faecium and P. aeruginosa cultures, TSB (Tryptic Soy Broth) medium was used, instead of LB medium, in order to achieve exponential doubling times between 25 and 35 minutes. From dose-response curves, the half-maximal effective concentration (EC50) for each compound and strain was estimated. EC50 represents the molar concentration of a compound that produces 50% of the maximal possible effect. The EC50 values were mathematically determined by non linear regression fitting of the observed culture optical-density values, expressed as the percentage of 0.700 (y), into Hill Equation, y=min+max−min/1+(x/EC50)^−n where min and max are the lowest and highest observed values of the culture optical density, respectively, x the concentration of the tested compound, and n the Hill coefficient that represents the largest absolute value of the curve slope. EC50 is equal to the x- value of the sigmoid’s midpoint. Fitting was performed using the Four Parameter Logistic Curve of the SigmaPlot Program Version 11.0 (Systat Software, Inc) for Exact Graphs and Data Analysis.

S. aureus (WT) = assay: Antibacterial activity (growth inhibition, EC50); assay type: cell-based; settings: Staphylococcus aureus; LB medium, 37°C, OD560; read-out: EC50
From the text: as §1

E. faecium (GRE5152) = assay: Antibacterial activity (growth inhibition, EC50); assay type: cell-based; settings: Enterococcus faecium; TSB medium, 37°C, OD560; read-out: EC50
From the text: as §1

MRSA (GRE2691) = assay: Antibacterial activity (growth inhibition, EC50); assay type: cell-based; settings: Staphylococcus aureus, LB medium, 37°C, OD560, read-out: EC50
From the text: as §1

MRSA (GRE2272) = assay: Antibacterial activity (growth inhibition, EC50); assay type: cell-based; settings: Staphylococcus aureus, LB medium, 37°C, OD560, read-out: EC50
From the text: as §1

[1] = test system: post-translocation ribosomal complex (complex C) derived from E. coli; assay: Inhibition of peptide-bond formation (puromycin reaction, AcPhe-puromycin synthesis); assay type: biochemical; settings: for Ki: 25°C, buffer A; for k off: nonlinear regression of k eq; for activity compared to CAM: ranking by K i*; for k6 / k6/k7 / k7: S1 Table
Procedure: The inhibitory effect of CAM dimers on peptide-bond formation was studied using the puromycin reaction, a model reaction between puromycin and a post-translocation ribosomal complex (complex C) derived from E. coli. Since puromycin, a pseudo-substrate of PTase which binds to the A-site of the catalytic center, was present in excess, the reaction obeyed first-order kinetics. The first-order rate constant, k obs, at each concentration of puromycin was determined by fitting the x values into Eq 1, ln100/100−x=kobst (1) where x is the product AcPhe-puromycin, expressed as the percentage of complex C added in the reaction mixture, and t is the time of the reaction.
A representative time plot obtained at 400 μM puromycin, in the absence of inhibitor, is illustrated in Fig 3A (upper line) and, as expected, is characterized by linearity. However, when the reaction proceeded in the presence of a CAM dimer, e.g. compound 5, the time plots were characterized by two unique features that distinguish them from a typical kinetic behavior. […] Second, the slopes of both progress curves varied as a function of the inhibitor concentration (Fig 3A, four lower curves). […] These kinetic results are consistent with compound 5 operating through an induced fit mechanism (Fig 3C), in which the inhibitor first binds rapidly to complex C to form the encounter complex CI, which then undergoes a slow conformational change to produce a final, tighter complex C*I. Corroborative evidence for the consistency of this model is provided by the hyperbolic shape of the equilibration plots (k eq versus [I]), in which k eq represents the apparent rate constant for the attainment of equilibrium among C, CI, and C*I (Fig 3B). If one-step mechanism of inhibition was applicable (C + I ⇄ C*I), k eq should be a linear function of [I] [27]. […] Because the isomerization constant k on/k off was calculated to be 3.6, the inhibition process was finally associated with high overall inhibition of peptide-bond formation (Ki* = 0.3 μM; S1 Fig, panel C). In addition, the slow k off rate (0.64 min^-1) provided prolonged residence time for compound 5 at the ribosome, a behavior potentially predicting good efficacy in vivo [28].
The puromycin reaction, i.e. the reaction between complex C and excess puromycin (S), was carried out at 25°C in buffer A [100 mM Tris-HCl pH 7.2, 6 mM (CH3COO)2Mg, 100 mM NH4Cl and 6 mM 2-mercaptoethanol]. Under these conditions, the puromycin reaction obeys C + S ⇄KS CS→kcat C^′ + S pseudo-first-order kinetics and was analyzed as previously described.
In the presence of CAM dimers, biphasic semi-logarithmic time plots were obtained. The slope of the straight line through the origin was seen as the value of the apparent rate constant, k obs(early), at the early phase of the reaction. Similarly, the slope of the second straight line was taken as the apparent rate constant, k obs(late), at the late phase of the puromycin reaction.

E. coli (A2058G) = assay: Antibacterial activity (growth inhibition, EC50); assay type: cell-based, Escherichia coli; settings: Escherichia coli
From the text: as §1

E. coli (WT) = assay: Antibacterial activity (growth inhibition, EC50); assay type: cell-based, Escherichia coli; settings: for EC50: Escherichia coli, LB medium, 37°C, OD560; for EC50(cell growth)/IC50(puro): wild-type E. coli, IC50(puro) calculated from Ki* at 2 mM puromycin
From the text: as §1

E. coli (ΔtolC) = assay: Antibacterial activity (growth inhibition, EC50); assay type: cell-based, Escherichia coli; settings: Escherichia coli, BL21-DE3
From the text: as §1

E. coli (A2503C) = assay: Antibacterial activity (growth inhibition, EC50); assay type: cell-based, Escherichia coli; settings: Escherichia coli
From the text: as §1

[2] = test system: E. coli Rosetta(DE3)pLysS; assay: Antibacterial activity (growth inhibition, EC50); assay type: cell-based, Escherichia coli; settings: Escherichia coli
From the text: as §1

[3] = overall inhibition constant (CI + C*I)

Compound | EC50 (P. aeruginosa (GRE5288)) [µM] | melting point [°C] | EC50 (S. aureus (WT)) [µM] | EC50 (E. faecium (GRE5152)) [µM] | EC50 (MRSA (GRE2691)) [µM] | EC50 (MRSA (GRE2272)) [µM] | Ki ([1]; encounter complex CI) [µM] | k off [1] [s⁻¹] | Ki [1, 3] [µM] | activity compared to CAM [1] | EC50 (E. coli (A2058G)) [µM] | EC50 (E. coli (WT)) [µM] | EC50(cell growth)/IC50(puro) (E. coli (WT)) | EC50 (E. coli (ΔtolC)) [µM] | EC50 (E. coli (A2503C)) [µM] | EC50 [2] [µM] | k6 [1] [min⁻¹] | k6/k7 [1] | k7 [1] [min⁻¹]
O=C(CC(=O)N[C@H](CO)[C@H](O)c1ccc([N+](=O)[O-])cc1)N[C@H](CO)[C@H](O)c1ccc([N+](=O)[O-])cc1 [Compound 1, N^1,N^3-Bis((1R,2R)-1,3-dihydroxy-1-(4-nitrophenyl)propan-2-yl)malonamide] | > 100 | 142 to 143 | 32.2 ± 1 | > 200 | > 200 | > 200 | 2.4 ± 0.18 | 0.01 ± 0.00083 | 0.6 ± 0.05 | comparable | > 200 | > 200 | >55.5 | > 200 | > 200 | > 200 | – | – | –
O=C(/C=C/C(=O)N[C@H](CO)[C@H](O)c1ccc([N+](=O)[O-])cc1)N[C@H](CO)[C@H](O)c1ccc([N+](=O)[O-])cc1 [Compound 2, N^1,N^4-Bis((1R,2R)-1,3-dihydroxy-1-(4-nitrophenyl)propan-2-yl)fumaramide] | > 100 | 207 to 208 | 44.4 ± 2.9 | > 200 | > 200 | > 200 | 2.7 ± 0.25 | 0.0117 ± 0.00083 | 0.75 ± 0.06 | comparable | > 200 | > 200 | >44.4 | > 200 | > 200 | > 200 | – | – | –
O=C(CCCC(=O)N[C@H](CO)[C@H](O)c1ccc([N+](=O)[O-])cc1)N[C@H](CO)[C@H](O)c1ccc([N+](=O)[O-])cc1 [Compound 3, N^1,N^5-Bis((1R,2R)-1,3-dihydroxy-1-(4-nitrophenyl)propan-2-yl)glutaramide] | 42.4 ± 8.7 | – | 17.4 ± 1.3 | 69.8 ± 14.8 | 27.2 ± 3.4 | 20.8 ± 2.5 | 4.5 ± 0.36 | 0.0167 ± 0.0005 | 1.2 ± 0.09 | lower | 47.3 ± 6.9 | 52.4 ± 6.8 | 7.28 ± 1.08 | 43.7 ± 5.2 | 68.1 ± 13.8 | 65.1 ± 6.6 | – | – | –
O=C(CCCCCCC(=O)N[C@H](CO)[C@H](O)c1ccc([N+](=O)[O-])cc1)N[C@H](CO)[C@H](O)c1ccc([N+](=O)[O-])cc1 [Compound 6, N^1,N^8-Bis((1R,2R)-1,3-dihydroxy-1-(4-nitrophenyl)propan-2-yl)octane-diamide] | > 100 | 131 to 132 | 49.6 ± 5.4 | > 200 | > 200 | > 200 | 10.5 ± 0.9 | 0.0133 ± 0.00067 | 2.3 ± 0.2 | lower | > 200 | > 200 | >14.5 | > 200 | > 200 | > 200 | – | – | –
O=C(CCCCCCCC(=O)N[C@H](CO)[C@H](O)c1ccc([N+](=O)[O-])cc1)N[C@H](CO)[C@H](O)c1ccc([N+](=O)[O-])cc1 [Compound 7, N^1,N^9-Bis((1R,2R)-1,3-dihydroxy-1-(4-nitrophenyl)propan-2-yl)nonanediamide] | > 100 | 137 to 139 | 72.7 ± 11.8 | > 200 | > 200 | > 200 | 12 ± 1.2 | 0.014 ± 0.001 | 2.8 ± 0.27 | lower | > 200 | > 200 | >11.9 | > 200 | > 200 | > 200 | – | – | –
O=C(/C=C/c1ccc(/C=C/C(=O)N[C@H](CO)[C@H](O)c2ccc([N+](=O)[O-])cc2)cc1)N[C@H](CO)[C@H](O)c1ccc([N+](=O)[O-])cc1 [Compound 8, N,N^’-Bis((1R,2R)-1,3-dihydroxy-1-(4-nitrophenyl)propan-2-yl)-1,4-phenylene diacryldiamide] | > 100 | 144 to 145 | > 200 | > 200 | > 200 | > 200 | – | – | – | no activity | > 200 | > 200 | – | > 200 | > 200 | > 200 | – | – | –
O=C(O)CCCC(=O)N[C@H](CO)[C@H](O)c1ccc([N+](=O)[O-])cc1 [Compound 9, 5-(((1R,2R)-1,3-dihydroxy-1-(4-nitrophenyl)propan-2-yl)amino)-5-oxopentanoic acid] | – | – | – | – | – | – | – | – | – | – | – | – | – | – | – | – | 2.50 ± 0.33 | 1.53 ± 0.18 | 1.63 ± 0.12
O=C(O)CCCCC(=O)N[C@H](CO)[C@H](O)c1ccc([N+](=O)[O-])cc1 [Compound 10, 6-(((1R,2R)-1,3-dihydroxy-1-(4-nitrophenyl)propan-2-yl)amino)-6-oxohexanoic acid] | – | – | – | – | – | – | – | – | – | – | – | – | – | – | – | – | 2.52 ± 0.40 | 2.25 ± 0.27 | 1.11 ± 0.12
O=C(O)c1ccc(C(=O)N[C@H](CO)[C@H](O)c2ccc([N+](=O)[O-])cc2)cc1 [Compound 11, 4-(((1R,2R)-1,3-dihydroxy-1-(4-nitrophenyl)propan-2-yl)carbamoyl)benzoic acid] | – | – | – | – | – | – | – | – | – | – | – | – | – | – | – | – | 2.31 ± 0.48 | 1.63 ± 0.31 | 1.42 ± 0.13
